According to PubChem BioAssay AID1259407 (Chemical Carcinogenesis Research Information System (CCRIS), 2018):
The source made the active and inactive calls. How the calls were made is not given here.

System: CCRIS mutagenicity, Ames/micronucleus/aberration tests
Assay: CCRIS mutagenicity studies
Source text: The CCRIS database contains chemical records with carcinogenicity, mutagenicity, tumor promotion, and tumor inhibition test results. It was developed by the National Cancer Institute (NCI). Data are derived from studies cited in primary journals, current awareness tools, NCI reports, and other sources. Test results have been reviewed by experts in carcinogenesis and mutagenesis.
CCRIS provides historical information from the years 1985 - 2011. It is no longer updated.
This is an archive assay for CCRIS mutagenicity studies.

[1] = Test System: AMES SALMONELLA TYPHIMURIUM, Strain/Indicator: TA100, Metabolic Activation: NONE, Method: STANDARD PLATE
[2] = Test System: AMES SALMONELLA TYPHIMURIUM, Strain/Indicator: TA98, Metabolic Activation: NONE, Method: PREINCUBATION
[3] = Test System: AMES SALMONELLA TYPHIMURIUM, Strain/Indicator: TA98, Metabolic Activation: RAT, LIVER, S-9, AROCLOR 1254, Method: PREINCUBATION
[4] = Test System: AMES SALMONELLA TYPHIMURIUM, Strain/Indicator: TA100, Metabolic Activation: NONE, Method: PREINCUBATION
[5] = Test System: AMES SALMONELLA TYPHIMURIUM, Strain/Indicator: TA100, Metabolic Activation: RAT, LIVER, S-9, AROCLOR 1254, Method: PREINCUBATION

For `OCNc1ncnc2c1ncn2[C@@H]1O[C@H](CO)[C@@H](O)[C@H]1O`, the mutagenic call (Test System: AMES SALMONELLA TYPHIMURIUM, Strain/Indicator: TA100(TN5-1,8-DNP1011), Metabolic Activation: NONE, Method: STANDARD PLATE) was “inactive; negative”, the mutagenic call (Test System: AMES SALMONELLA TYPHIMURIUM, Strain/Indicator: TA100(TN5-1,8-DNP1012), Metabolic Activation: NONE, Method: STANDARD PLATE) was “active; positive” and the mutagenic call [1] was “inactive; negative”.
`C/C=C(\C)C(=O)O[C@H]1C[C@@H](OC(C)=O)[C@@]2(C(=O)OC)CO[C@H]3[C@@H](O)[C@@](C)([C@]45O[C@@]4(C)[C@H]4C[C@@H]5O[C@@H]5OC=C[C@@]54O)[C@H]4[C@]1(CO[C@]4(O)C(=O)OC)[C@@H]32` was tested, and the mutagenic call (End Point: IN VIVO CHROMOSOMAL ABERRATIONS, Test System: BONE MARROW, Species: MOUSE, Strain/Sex: SWR/J/MALE,FEMALE, Route: ORAL (GAVAGE)) was “inactive; negative” and the mutagenic call (End Point: In vivo chromosomal aberrations, Test System: Bone marrow cells, Species: Mouse, Strain/Sex: Swiss/Male, Route: Oral) was “active; positive (structural changes)”.
For `CCCN(CC(C)=O)N=O`, the mutagenic call (Test System: CHINESE HAMSTER V-79, Strain/Indicator: V-79/OUABAIN, Metabolic Activation: HAMSTER, HEPATOCYTES, Method: CELL-MEDIATED) was “active; positive”.
`CCC(C)C=O` (centres undefined) was tested, and the mutagenic call [2] was “inactive; negative”, the mutagenic call [3] was “inactive; negative” and the mutagenic call [4] was “inactive; negative”. For the same compound, the mutagenic call [5] was “inactive; negative”, the mutagenic call (Test System: AMES SALMONELLA TYPHIMURIUM, Strain/Indicator: TA102, Metabolic Activation: NONE, Method: PREINCUBATION) was “inactive; negative” and the mutagenic call (Test System: AMES SALMONELLA TYPHIMURIUM, Strain/Indicator: TA102, Metabolic Activation: RAT, LIVER, S-9, AROCLOR 1254, Method: PREINCUBATION) was “inactive; negative”.
In the case of `CCOC(=O)CC(=O)OCC`, the mutagenic call (Test System: Ames Salmonella typhimurium, Strain/Indicator: TA98, Metabolic Activation: None, Method: Preincubation) is reported as “inactive; negative”, the mutagenic call (Test System: Ames Salmonella typhimurium, Strain/Indicator: TA98, Metabolic Activation: Rat, Liver, S-9, Phenobarbital and 5,6-benzoflavone, Method: Preincubation) is reported as “inactive; negative” and the mutagenic call (Test System: Ames Salmonella typhimurium, Strain/Indicator: TA100, Metabolic Activation: None, Method: Preincubation) is reported as “inactive; negative”. For the same compound, the mutagenic call (Test System: Ames Salmonella typhimurium, Strain/Indicator: TA100, Metabolic Activation: Rat, Liver, S-9, Phenobarbital and 5,6-benzoflavone, Method: Preincubation) was “inactive; negative”, the mutagenic call (Test System: Ames Salmonella typhimurium, Strain/Indicator: TA1535, Metabolic Activation: None, Method: Preincubation) was “inactive; negative” and the mutagenic call (Test System: Ames Salmonella typhimurium, Strain/Indicator: TA1535, Metabolic Activation: Rat, Liver, S-9, Phenobarbital and 5,6-benzoflavone, Method: Preincubation) was “inactive; negative”. For the same compound, the mutagenic call (Test System: Ames Salmonella typhimurium, Strain/Indicator: TA1537, Metabolic Activation: None, Method: Preincubation) was “inactive; negative”, the mutagenic call (Test System: Ames Salmonella typhimurium, Strain/Indicator: TA1537, Metabolic Activation: Rat, Liver, S-9, Phenobarbital and 5,6-benzoflavone, Method: Preincubation) was “inactive; negative” and the mutagenic call (Test System: E. coli, Strain/Indicator: WP2uvrA/pKM101, Metabolic Activation: None, Method: Preincubation) was “inactive; negative”. The mutagenic call (Test System: E. coli, Strain/Indicator: WP2uvrA/pKM101, Metabolic Activation: Rat, Liver, S-9, Phenobarbital and 5,6-benzoflavone, Method: Preincubation) was “inactive; negative”.
In the case of `C/C=C\C(=O)O[C@@H]1C[C@H]2O[C@@H]3C=C(C)C(=O)C[C@]3(C)[C@]1(C)[C@]21CO1`, the mutagenic call [2] is reported as “inactive; negative”, the mutagenic call [3] is reported as “inactive; negative” and the mutagenic call [4] is reported as “inactive; negative”. For the same compound, the mutagenic call [5] was “inactive; negative”.
`CCCCCCC(=O)OCCN1CCN(CCCN2c3ccccc3Sc3ccc(C(F)(F)F)cc32)CC1` was tested, and the mutagenic call (Test System: AMES SALMONELLA TYPHIMURIUM, Strain/Indicator: TA98, Metabolic Activation: NONE) was “inactive; negative”, the mutagenic call (Test System: AMES SALMONELLA TYPHIMURIUM, Strain/Indicator: TA98, Metabolic Activation: RAT, LIVER, S-9, PHENOBARBITAL AND 5,6-BENZOFLAVONE) was “inactive; negative” and the mutagenic call (Test System: AMES SALMONELLA TYPHIMURIUM, Strain/Indicator: TA100, Metabolic Activation: NONE) was “inactive; negative”. The mutagenic call (Test System: AMES SALMONELLA TYPHIMURIUM, Strain/Indicator: TA100, Metabolic Activation: RAT, LIVER, S-9, PHENOBARBITAL AND 5,6 BENZOFLAVONE) was “inactive; negative”, the mutagenic call (Test System: AMES SALMONELLA TYPHIMURIUM, Strain/Indicator: TA1535, Metabolic Activation: NONE) was “inactive; negative” and the mutagenic call (Test System: AMES SALMONELLA TYPHIMURIUM, Strain/Indicator: TA1535, Metabolic Activation: RAT, LIVER, S-9, PHENOBARBITAL AND 5,6-BENZOFLAVONE) was “inactive; negative”. For the same compound, the mutagenic call (Test System: AMES SALMONELLA TYPHIMURIUM, Strain/Indicator: TA1537, Metabolic Activation: NONE) was “inactive; negative”, the mutagenic call (Test System: AMES SALMONELLA TYPHIMURIUM, Strain/Indicator: TA1537, Metabolic Activation: RAT, LIVER, S-9, PHENOBARBITAL AND 5,6-BENZOFLAVONE) was “inactive; negative” and the mutagenic call (Test System: E. COLI, Strain/Indicator: WP2 UVRA, Metabolic Activation: NONE) was “inactive; negative”. The mutagenic call (Test System: E. COLI, Strain/Indicator: WP2 UVRA, Metabolic Activation: RAT, LIVER, S-9, PHENOBARBITAL AND 5,6 BENZOFLAVONE) was “inactive; negative”.
`NC1CCC(N)CC1` (centres undefined) was tested, and the mutagenic call (Test System: AMES SALMONELLA TYPHIMURIUM, Strain/Indicator: TA97, Metabolic Activation: NONE, Method: STANDARD PLATE) was “inactive; negative”, the mutagenic call (Test System: AMES SALMONELLA TYPHIMURIUM, Strain/Indicator: TA97, Metabolic Activation: RAT, LIVER, S-9, Method: STANDARD PLATE) was “inactive; negative” and the mutagenic call (Test System: AMES SALMONELLA TYPHIMURIUM, Strain/Indicator: TA98, Metabolic Activation: NONE, Method: STANDARD PLATE) was “inactive; negative”. For the same compound, the mutagenic call (Test System: AMES SALMONELLA TYPHIMURIUM, Strain/Indicator: TA98, Metabolic Activation: RAT, LIVER, S-9, Method: STANDARD PLATE) was “inactive; negative”, the mutagenic call [1] was “inactive; negative” and the mutagenic call (Test System: AMES SALMONELLA TYPHIMURIUM, Strain/Indicator: TA100, Metabolic Activation: RAT, LIVER, S-9, Method: STANDARD PLATE) was “inactive; negative”. The mutagenic call (Test System: AMES SALMONELLA TYPHIMURIUM, Strain/Indicator: TA1535, Metabolic Activation: NONE, Method: STANDARD PLATE) was “inactive; negative” and the mutagenic call (Test System: AMES SALMONELLA TYPHIMURIUM, Strain/Indicator: TA1535, Metabolic Activation: RAT, LIVER, S-9, Method: STANDARD PLATE) was “inactive; negative”.
